This passage reports MIC results from ChEMBL document CHEMBL1137144, “Synthesis and biological evaluation of novel 4"-alkoxy avermectin derivatives” (2004).

In test [1] the test system is Caenorhabditis elegans. The experiment in a line: Minimum inhibitory concentration for growth inhibition of Caenorhabditis elegans (free living nematode) in a microplate assay. It is filed as functional.
The test system of test [2] is Artemia salina. As to the kind of experiment: Minimum inhibitory concentration for growth inhibition of Artemia salina(brine shrimp) in a microplate assay. It is filed as functional.

Values after ≈ are worked out from the molar mass of the structure shown.

In the case of `CCC(C)[C@H]1O[C@]2(C=C[C@@H]1C)C[C@@H]1C[C@@H](C/C=C(\C)[C@@H](OC3C[C@H](OC)[C@@H](OC4C[C@H](OC)[C@@H](OCC(=O)N5CCOCC5)[C@H](C)O4)[C@H](C)O3)[C@@H](C)/C=C/C=C3\CO[C@@H]4[C@H](O)C(C)=C[C@@H](C(=O)O1)[C@]34O)O2` (stereo not given in full), the MIC in test [1] and in test [2] was 0.5 ng/mL (≈ 0.5 nM) each time.
Regarding `CCC(C)[C@H]1O[C@]2(C=C[C@@H]1C)C[C@@H]1C[C@@H](C/C=C(\C)C(O[C@H]3C[C@H](OC)C(O[C@H]4C[C@H](OC)[C@@H](OCCBr)[C@H](C)O4)[C@H](C)O3)[C@@H](C)/C=C/C=C3\CO[C@@H]4[C@H](O)C(C)=CC(C(=O)O1)C34O)O2` (stereo not given in full), the minimum inhibitory concentration (MIC) in test [1] worked out at 10 ng/mL (≈ 10.2 nM); in test [2], 2 ng/mL (≈ 2.04 nM).
On the same counts, the results for `CCOC(=O)CO[C@H]1[C@H](C)O[C@@H](OC2[C@H](C)O[C@@H](OC3/C(C)=C/C[C@@H]4C[C@@H](C[C@]5(CC(=O)[C@H](C)[C@@H](C(C)CC)O5)O4)OC(=O)C4C=C(C)[C@@H](O)[C@H]5OC/C(=C\C=C\[C@@H]3C)C45O)C[C@@H]2OC)C[C@@H]1OC` (stereo not given in full) are 10 ng/mL (≈ 10.3 nM) and 2 ng/mL (≈ 2.05 nM).
As for `CCC(C)[C@H]1O[C@]2(C=C[C@@H]1C)C[C@@H]1C[C@@H](C/C=C(\C)C(O[C@H]3C[C@H](OC)C(O[C@H]4C[C@H](OC)[C@@H](OCCN5CCNCC5)[C@H](C)O4)[C@H](C)O3)[C@@H](C)/C=C/C=C3\CO[C@@H]4[C@H](O)C(C)=CC(C(=O)O1)C34O)O2` (stereo not given in full), the results for the MIC in test [1] and in test [2] were 50 ng/mL (≈ 50.7 nM) and 10 ng/mL (≈ 10.1 nM), respectively.
For the compound `CCC(C)[C@H]1O[C@]2(CC[C@@H]1C)C[C@@H]1C[C@@H](C/C=C(\C)C(O[C@H]3C[C@H](OC)C(O[C@H]4C[C@H](OC)[C@@H](OCC(=O)O)[C@H](C)O4)[C@H](C)O3)[C@@H](C)/C=C/C=C3\CO[C@@H]4[C@H](O)C(C)=CC(C(=O)O1)C34O)O2` (stereo not given in full), the MIC in test [1] came to 0.5 ng/mL (≈ 0.536 nM); in test [2], 0.1 ng/mL (≈ 0.107 nM).
The matching figures for `CCOC(=O)CO[C@H]1[C@H](C)O[C@@H](O[C@@H]2/C(C)=C/C[C@@H]3C[C@@H](C[C@]4(CC[C@H](C)[C@@H](C(C)CC)O4)O3)OC(=O)C3C=C(C)[C@@H](O)[C@H]4OC/C(=C\C=C\[C@@H]2C)C34O)C[C@@H]1OC` (stereo not given in full): 2 ng/mL (≈ 2.45 nM) and 0.5 ng/mL (≈ 0.612 nM).
The matching figures for `CCC(C)[C@H]1O[C@]2(C=C[C@@H]1C)C[C@@H]1C[C@@H](C/C=C(\C)[C@@H](OC3C[C@H](OC)[C@@H](OC4C[C@H](OC)C(OCC(=O)N5CCCCC5)[C@H](C)O4)[C@H](C)O3)[C@@H](C)/C=C/C=C3\CO[C@@H]4[C@H](O)C(C)=C[C@@H](C(=O)O1)[C@]34O)O2` (stereo not given in full): 10 ng/mL (≈ 10 nM) and 10 ng/mL (≈ 10 nM).
The matching figures for `CCC(C)[C@H]1O[C@]2(C=C[C@@H]1C)C[C@@H]1C[C@@H](C/C=C(\C)C(O[C@H]3C[C@H](OC)C(O[C@H]4C[C@H](OC)[C@@H](OCCN5CCOCC5)[C@H](C)O4)[C@H](C)O3)[C@@H](C)/C=C/C=C3\CO[C@@H]4[C@H](O)C(C)=CC(C(=O)O1)C34O)O2` (stereo not given in full): 10 ng/mL (≈ 10.1 nM) and 2 ng/mL (≈ 2.03 nM).
`CCOC(=O)CO[C@H]1[C@H](C)O[C@@H](O[C@@H]2/C(C)=C/C[C@@H]3C[C@@H](C[C@]4(C=C[C@H](C)[C@@H](C(C)CC)O4)O3)OC(=O)C3C=C(C)[C@@H](O)[C@H]4OC/C(=C\C=C\[C@@H]2C)C34O)C[C@@H]1OC` (stereo not given in full): the MIC in test [1] stood at 2 ng/mL (≈ 2.45 nM); in test [2], 0.5 ng/mL (≈ 0.613 nM).
The matching figures for `CCC(C)[C@H]1O[C@]2(C=C[C@@H]1C)C[C@@H]1C[C@@H](C/C=C(\C)[C@@H](OC3C[C@H](OC)[C@@H](OC4C[C@H](OC)[C@@H](OCC(=O)O)[C@H](C)O4)[C@H](C)O3)[C@@H](C)/C=C/C=C3\CO[C@@H]4[C@H](O)C(C)=C[C@@H](C(=O)O1)[C@]34O)O2` (stereo not given in full): 0.1 ng/mL (≈ 0.107 nM) and 0.02 ng/mL (≈ 0.0215 nM).
Consider `CCC(C)[C@H]1O[C@]2(C=C[C@@H]1C)C[C@@H]1C[C@@H](C/C=C(\C)C(O[C@H]3C[C@H](OC)C(O[C@H]4C[C@H](OC)[C@@H](OCCN=[N+]=[N-])[C@H](C)O4)[C@H](C)O3)[C@@H](C)/C=C/C=C3\CO[C@@H]4[C@H](O)C(C)=CC(C(=O)O1)C34O)O2` (stereo not given in full), for which the MIC in test [1] was 10 ng/mL (≈ 10.6 nM); in test [2] it was 0.5 ng/mL (≈ 0.531 nM).
The matching figures for `CC[C@H](C)[C@H]1O[C@]2(C=C[C@@H]1C)C[C@@H]1C[C@@H](C/C=C(\C)[C@@H](O[C@H]3C[C@H](OC)[C@@H](O[C@H]4C[C@H](OC)[C@@H](O)[C@H](C)O4)[C@H](C)O3)[C@@H](C)/C=C/C=C3\CO[C@@H]4[C@H](O)C(C)=C[C@@H](C(=O)O1)[C@]34O)O2` [ABAMECTIN COMPONENT B1A]: 2 ng/mL (≈ 2.29 nM) and 0.5 ng/mL (≈ 0.573 nM).
The matching figures for `CCOC(=O)CO[C@H]1[C@H](C)OC(O[C@H]2[C@H](C)O[C@@H](OC3/C(C)=C/C[C@@H]4C[C@@H](C[C@]5(C=C[C@H](C)[C@@H](C(C)CC)O5)O4)OC(=O)[C@@H]4C=C(C)[C@@H](O)[C@H]5OC/C(=C\C=C\[C@@H]3C)[C@]54O)C[C@@H]2OC)C[C@@H]1OC` (stereo not given in full): 2 ng/mL (≈ 2.09 nM) and 0.5 ng/mL (≈ 0.521 nM).
Consider `CCOC(=O)CO[C@H]1[C@H](C)O[C@@H](OC2[C@H](C)O[C@@H](OC3/C(C)=C/C[C@@H]4C[C@@H](C[C@]5(CC[C@H](C)[C@@H](C(C)CC)O5)O4)OC(=O)C4C=C(C)[C@@H](O)[C@H]5OC/C(=C\C=C\[C@@H]3C)C45O)C[C@@H]2OC)C[C@@H]1OC` (stereo not given in full), for which the figures for the MIC in test [1] and in test [2] were 2 ng/mL (≈ 2.08 nM) and 0.5 ng/mL (≈ 0.52 nM), respectively.
On the same counts, the results for `CCC(C)[C@H]1O[C@]2(CC[C@@H]1C)C[C@@H]1C[C@@H](C/C=C(\C)[C@@H](OC3C[C@H](OC)[C@@H](OC4C[C@H](OC)[C@@H](O)[C@H](C)O4)[C@H](C)O3)[C@@H](C)/C=C/C=C3\CO[C@@H]4[C@H](O)C(C)=C[C@@H](C(=O)O1)[C@]34O)O2` (stereo not given in full) are 2 ng/mL (≈ 2.29 nM) and 2 ng/mL (≈ 2.29 nM).
On the same counts, the results for `CCC(C)[C@H]1O[C@]2(C=C[C@@H]1C)C[C@@H]1C[C@@H](C/C=C(\C)C(O[C@H]3C[C@H](OC)C(O[C@H]4C[C@H](OC)[C@@H](OC/C=N/OC)[C@H](C)O4)[C@H](C)O3)[C@@H](C)/C=C/C=C3\CO[C@@H]4[C@H](O)C(C)=CC(C(=O)O1)C34O)O2` (stereo not given in full) are 2 ng/mL (≈ 2.12 nM) and 0.5 ng/mL (≈ 0.53 nM).
On to `CCC(C)[C@H]1O[C@]2(CC[C@@H]1C)C[C@@H]1C[C@@H](C/C=C(\C)[C@@H](O[C@H]3C[C@H](OC)[C@@H](OCC(=O)O)[C@H](C)O3)[C@@H](C)/C=C/C=C3\CO[C@@H]4[C@H](O)C(C)=CC(C(=O)O1)C34O)O2` (stereo not given in full), for which the MIC in test [1] and in test [2] was 10 ng/mL (≈ 12.7 nM) each time.
Regarding `CCOC(=O)CO[C@H]1[C@H](C)O[C@@H](OC2[C@H](C)O[C@@H](OC3/C(C)=C/C[C@@H]4C[C@@H](C[C@]5(CC(O)[C@H](C)[C@@H](C(C)CC)O5)O4)OC(=O)C4C=C(C)[C@@H](O)[C@H]5OC/C(=C\C=C\[C@@H]3C)C45O)C[C@@H]2OC)C[C@@H]1OC` (stereo not given in full), the MIC is 2 ng/mL (≈ 2.05 nM) in test [1] and 0.5 ng/mL (≈ 0.512 nM) in test [2].
On the same counts, the results for `CCC(C)[C@H]1O[C@]2(C=C[C@@H]1C)C[C@@H]1C[C@@H](C/C=C(\C)C(O[C@H]3C[C@H](OC)C(O[C@H]4C[C@H](OC)[C@@H](OCCNC(C)=O)[C@H](C)O4)[C@H](C)O3)[C@@H](C)/C=C/C=C3\CO[C@@H]4[C@H](O)C(C)=CC(C(=O)O1)C34O)O2` (stereo not given in full) are 10 ng/mL (≈ 10.4 nM) and 10 ng/mL (≈ 10.4 nM).
On the same counts, the results for `CCC(C)[C@H]1O[C@]2(C=C[C@@H]1C)C[C@@H]1C[C@@H](C/C=C(\C)C(O[C@H]3C[C@H](OC)C(O[C@H]4C[C@H](OC)[C@@H](OCCO)[C@H](C)O4)[C@H](C)O3)[C@@H](C)/C=C/C=C3\CO[C@@H]4[C@H](O)C(C)=CC(C(=O)O1)C34O)O2` (stereo not given in full) are 10 ng/mL (≈ 10.9 nM) and 2 ng/mL (≈ 2.18 nM).
On the same counts, the results for `CCC(C)[C@H]1O[C@]2(C=C[C@@H]1C)C[C@@H]1C[C@@H](C/C=C(\C)C(O[C@H]3C[C@H](OC)C(O[C@H]4C[C@H](OC)[C@@H](OCCN5CCCCC5)[C@H](C)O4)[C@H](C)O3)[C@@H](C)/C=C/C=C3\CO[C@@H]4[C@H](O)C(C)=CC(C(=O)O1)C34O)O2` (stereo not given in full) are 50 ng/mL (≈ 50.8 nM) and 10 ng/mL (≈ 10.2 nM).
On to `CCC(C)[C@H]1O[C@]2(C=C[C@@H]1C)C[C@@H]1C[C@@H](C/C=C(\C)[C@@H](O[C@H]3C[C@H](OC)[C@@H](OCC(=O)O)[C@H](C)O3)[C@@H](C)/C=C/C=C3\CO[C@@H]4[C@H](O)C(C)=CC(C(=O)O1)C34O)O2` (stereo not given in full), for which the MIC in test [1] was 10 ng/mL (≈ 12.7 nM); in test [2], 2 ng/mL (≈ 2.54 nM).
On the same counts, the results for `CCOC(=O)CO[C@H]1[C@H](C)O[C@@H](OC2[C@H](C)O[C@@H](OC3/C(C)=C/C[C@@H]4C[C@@H](C[C@]5(C/C(=N\OC)[C@H](C)[C@@H](C(C)CC)O5)O4)OC(=O)C4C=C(C)[C@@H](O)[C@H]5OC/C(=C\C=C\[C@@H]3C)C45O)C[C@@H]2OC)C[C@@H]1OC` (stereo not given in full) are 2 ng/mL (≈ 1.99 nM) and 2 ng/mL (≈ 1.99 nM).
The matching figures for `CCC(C)[C@H]1O[C@]2(C=C[C@@H]1C)C[C@@H]1C[C@@H](C/C=C(\C)C(O[C@H]3C[C@H](OC)C(O[C@H]4C[C@H](OC)[C@@H](OCCN)[C@H](C)O4)[C@H](C)O3)[C@@H](C)/C=C/C=C3\CO[C@@H]4[C@H](O)C(C)=CC(C(=O)O1)C34O)O2` (stereo not given in full): 50 ng/mL (≈ 54.6 nM) and 10 ng/mL (≈ 10.9 nM).
The matching figures for `CCC(C)[C@H]1O[C@]2(C=C[C@@H]1C)C[C@@H]1C[C@@H](C/C=C(\C)C(O[C@H]3C[C@H](OC)C(O[C@H]4C[C@H](OC)[C@@H](OC/C=N/O)[C@H](C)O4)[C@H](C)O3)[C@@H](C)/C=C/C=C3\CO[C@@H]4[C@H](O)C(C)=CC(C(=O)O1)C34O)O2` (stereo not given in full): 2 ng/mL (≈ 2.15 nM) and 2 ng/mL (≈ 2.15 nM).

As a reminder, the MIC is the smallest concentration in the dilution series that meets the test's criterion for growth inhibition. A low value points to greater potency.
